Reference: patent publication US9951028B2, “Agricultural chemicals” (REDAG CROP PROTECTION LTD, priority 2013, dated 2018)

Key:
Assay in all cases: Herbicidal efficacy screen, corrected necrosis
Format in all cases: in vivo
[1] = tested on: Abutilon theophrasti (China Jute)
Experimental: (§1) Plants were obtained as seeds and were grown to the 2-4 true leaf stage. Plants were grown under laboratory conditions, individually in seed trays. Each plant (in an approximately 3 cm diameter plug) was then detached from the tray for spraying. The compounds were screened at a range of five concentrations, diluted in acetone and Tween™. A carrier only control was also conducted. Treatments were applied directly onto the plants, using a potter tower, at a specified application rate. One plant of each species was sprayed using a potter tower. The 3 different types of plants were placed on a 10 cm diameter platform directly beneath the potter sprayer and sprayed simultaneously. The growth of the plants and any Phytotoxicity effects were then assessed at intervals over 21 days, according to EPPO guideline PP1/135. In the tables below C represents a percentage increase in necrosis relative to the control of 0.1-50; B represents a percentage inhibition of 50-80; and A represents a percentage inhibition of 80-100. Certain compounds of the invention were screened for herbicidal efficacy against target plants: Amaranthus retroflexus (redroot pigweed), Abutilon theophrasti (China Jute): Capsella bursa-pastoris, (shepherd's-purse) Echinochloa crus-galli, Hordeum vulgare (Barley),

[2] = tested on: Capsella bursa-pastoris, (shepherd's-purse)
Experimental: as §1

[3] = tested on: Amaranthus retroflexus (redroot pigweed)
Experimental: as §1

[4] = 6.25 g/ha, day 1 post application
[5] = 6.25 g/ha, day 7 post application
[6] = 12.5 g/ha, day 1 post application
[7] = 12.5 g/ha, day 7 post application
[8] = 25 g/ha, day 1 post application
[9] = 25 g/ha, day 7 post application
[10] = 50 g/ha, day 1 post application
[11] = 50 g/ha, day 7 post application
[12] = 100 g/ha, day 1 post application
[13] = 100 g/ha, day 7 post application

SMILES: CC(C)N(C)S(=O)(=O)NC(=O)c1cc(-n2c(=O)cc(C(F)(F)F)n(C)c2=O)c(F)cc1Cl [Compound 25, 2-Chloro-4-fluoro-N-(isopropyl(methyl)sulfamoyl)-5-[3-methyl-2,6-dioxo-4-(trifluoromethyl)pyrimidin-1-yl]benzamide, reference compound]
- Average of corrected necrosis [1, 4]: C (C represents a percentage increase in necrosis relative to the control of 0.1-50)
- Average of corrected necrosis [1, 5]: A (A represents a percentage inhibition of 80-100)
- Average of corrected necrosis [1, 6]: C (C represents a percentage increase in necrosis relative to the control of 0.1-50)
- Average of corrected necrosis [1, 7]: A (A represents a percentage inhibition of 80-100)
- Average of corrected necrosis [1, 8]: C (C represents a percentage increase in necrosis relative to the control of 0.1-50)
- Average of corrected necrosis [1, 9]: A (A represents a percentage inhibition of 80-100)
- Average of corrected necrosis [1, 10]: C (C represents a percentage increase in necrosis relative to the control of 0.1-50)
- Average of corrected necrosis [1, 11]: A (A represents a percentage inhibition of 80-100)
- Average of corrected necrosis [1, 12]: C (C represents a percentage increase in necrosis relative to the control of 0.1-50)
- Average of corrected necrosis [1, 13]: A (A represents a percentage inhibition of 80-100)
- Average of corrected necrosis [2, 4]: 0%
- Average of corrected necrosis [2, 5]: A (A represents a percentage inhibition of 80-100)
- Average of corrected necrosis [2, 6]: 0%
- Average of corrected necrosis [2, 7]: A (A represents a percentage inhibition of 80-100)
- Average of corrected necrosis [2, 8]: 0%
- Average of corrected necrosis [2, 9]: A (A represents a percentage inhibition of 80-100)
- Average of corrected necrosis [2, 10]: C (C represents a percentage increase in necrosis relative to the control of 0.1-50)
- Average of corrected necrosis [2, 11]: A (A represents a percentage inhibition of 80-100)
- Average of corrected necrosis [2, 12]: C (C represents a percentage increase in necrosis relative to the control of 0.1-50)
- Average of corrected necrosis [2, 13]: A (A represents a percentage inhibition of 80-100)
- Average of corrected necrosis [3, 4]: C (C represents a percentage increase in necrosis relative to the control of 0.1-50)
- Average of corrected necrosis [3, 5]: A (A represents a percentage inhibition of 80-100)
- Average of corrected necrosis [3, 6]: C (C represents a percentage increase in necrosis relative to the control of 0.1-50)
- Average of corrected necrosis [3, 7]: A (A represents a percentage inhibition of 80-100)
- Average of corrected necrosis [3, 8]: C (C represents a percentage increase in necrosis relative to the control of 0.1-50)
- Average of corrected necrosis [3, 9]: A (A represents a percentage inhibition of 80-100)
- Average of corrected necrosis [3, 10]: C (C represents a percentage increase in necrosis relative to the control of 0.1-50)
- Average of corrected necrosis [3, 11]: A (A represents a percentage inhibition of 80-100)
- Average of corrected necrosis [3, 12]: C (C represents a percentage increase in necrosis relative to the control of 0.1-50)
- Average of corrected necrosis [3, 13]: A (A represents a percentage inhibition of 80-100)
